Experimental data as given in article PMC6112376, “Comprehensive Analyses and Prioritization of Tox21 10K Chemicals Affecting Mitochondrial Function by in-Depth Mechanistic Studies” (Environmental Health Perspectives, 2018).
Counter-ions that a name gives are not always drawn. Like-named read-outs stand apart in the source and are kept apart here.

What was measured:
HepG2 cells [1] = conditions: for IC50: read-out: MMP assays IC50 (µM) HepG2
rat primary hepatocytes [2] = system: rat primary hepatocytes
HepG2 cells [3] = conditions: cited from earlier work
rat primary hepatocytes [4] = assay: MMP assay in rat primary hepatocytes; conditions: for IC50: read-out: MMP assays IC50 (µM) Rat Hepatocytes
[5] = read-out: MMP assays IC50 (µM), qHTS-HepG2
[6] = read-out: MMP assays IC50 (µM) qHTS-HepG2

Row | Molecule | MMP assays IC50 (µM) HepG2 (HepG2 cells [1]) | MMP assays efficacy (%) HepG2 (HepG2 cells [1]) | MMP assays efficacy (%) Rat Hepatocytes (rat primary hepatocytes [2]) | MMP assays efficacy (%) qHTS-HepG2 (HepG2 cells [3]) | IC50 (HepG2 cells [3]; [5]) | IC50 (rat primary hepatocytes [4]; Rattus norvegicus, Hepatocyte) | MMP assays IC50 (µM) qHTS-HepG2 (HepG2 cells [3]) | MMP assays IC50 (µM) Rat Hepatocytes (rat primary hepatocytes [4]) | IC50 (HepG2 cells [3]; [6]) | IC50 (HepG2 cells [1]) | IC50 (rat primary hepatocytes [4])
1 | Nc1ccc(/N=N/c2ccccc2)c(N)n1 [Phenazopyridine hydrochloride] | inactive | inactive | -59±26% | -74±20% | 15.7 ± 3.45 µM | 23.8 ± 1.93 µM |  |  |  |  | 
2 | C[C@]12CC[C@@H]3c4ccc(O)cc4CC[C@H]3[C@@H]1CC[C@@H]2OP(=O)(O)O [Estradiol phosphate] | inactive | inactive | inactive | inactive |  |  | inactive | inactive |  |  | 
3 | Nc1c(Br)cc(Br)c2c1C(=O)c1ccccc1C2=O [1-Amino-2,4-dibromoanthraquinone] | inactive | inactive | -48±19% | -54±9% |  | 27.4 ± 4.44 µM |  |  | 2.78 ± 3.75 µM |  | 
4 | CC(=O)O[Si](C)(OC(C)=O)OC(C)=O [Methylsilanetriyl triacetate] | inactive | inactive | inactive | -67±10% | 29.1 ± 16.4 µM |  |  | inactive |  |  | 
5 | O=[N+]([O-])c1ccc2nc[nH]c2c1 [Compound 6-Nitrobenzimidazole] | inactive | inactive | inactive | -53±6% |  |  |  | inactive | 36.4 ± 10.8 µM |  | 
6 | CC(=Cc1ccccc1)[N+](=O)[O-] [(2-Nitro-1-propenyl)benzene] | inactive | inactive | -107±47% | -105±10% |  | 25.9 ± 8.35 µM |  |  | 38.6 ± 15.3 µM |  | 
7 | Mepartricin |  | -99% | -65±17% | -82±8% | 23.2 ± 6.59 µM |  |  |  |  | 6.9 µM | 27.7 ± 4.48 µM
8 | O=C(N[C@@H]1N=C(c2ccccc2F)c2cccc3c2N(CC3)C1=O)c1cc2ccccc2[nH]1 |  | -81% | -61±16% | -64±4% |  |  |  |  | 8.41 µM | 13.8 µM | 17.3 µM
9 | CS(=O)(=O)O.CS(=O)(=O)O.N=C(N)c1ccc(/C=C/c2ccc(C(=N)N)cc2O)cc1 | inactive | inactive | -71±16% | -57±17% | 2.81 ± 0.9 µM |  |  |  |  |  | 13.6 ± 8.28 µM
10 | CCCCCCCCCCn1cc[n+](CCCCCCCCCC)c1C.[Cl-] [1,3-Didecyl-2-methylimidazolium chloride] |  | -104% | -110±29% | -83±13% |  |  |  |  | 3.86 ± 4.19 µM | 3.16 µM | 26.2 ± 3.35 µM
11 | CC#C[C@]1(O)CC[C@H]2[C@@H]3CCC4=CC(=O)CCC4=C3[C@@H](c3ccc(N(C)C)cc3)C[C@@]21C | inactive | inactive | inactive | -97±21% | 16.1 ± 32.5 µM |  |  | inactive |  |  | 
12 | CC1(C)C(/C=C(\Cl)C(F)(F)F)C1C(=O)OC(C#N)c1cccc(Oc2ccccc2)c1 (stereo not drawn) [Cyhalothrin] | inactive | inactive | -55±25% | -73±14% |  | 33.8 ± 9.96 µM |  |  | 33.6 ± 5.79 µM |  | 
13 | Nc1cccc(O)c1 [Compound 3-Aminophenol] | inactive | inactive | inactive | inactive |  |  | inactive | inactive |  |  | 
14 | CCO[Si](CC(C)C)(OCC)OCC [Triethoxy(2-methylpropyl)silane] |  | -83% | inactive | -66±5% | 28.9 ± 6.98 µM |  |  | inactive |  | 35.5 µM | 
15 | CC(C)(C)c1ccc(CN2CCN(C(c3ccccc3)c3ccc(Cl)cc3)CC2)cc1.Cl.Cl (stereo not drawn) [Buclizine dihydrochloride] | inactive | inactive | inactive | -52±10% |  |  |  | inactive | 32.2 ± 2.1 µM |  | 
16 | CCCCC/C(=C\c1ccccc1)CO [alpha-Amylcinnamyl alcohol] |  | -69% | -85±44% | -87±10% |  |  |  |  | 38.1 ± 17.4 µM | 56.2 µM | 4.83 ± 4.07 µM
